# Biological target: T1, plant Photosystem II (PSII), D1 protein QB site, pea (Lathyrus oleraceus, UniProt P06585)
# T1 construct: gene psbA; native D1 within whole PSII complex (D1/D2 reaction centre) in isolated thylakoid membranes from 4-week-old pea leaves; no tag, not purified further
# Experiment: DPIP photoreduction (Hill reaction, […] nm) in isolated thylakoid membranes, Langmuir isotherm fit
# Assay type: biochemical
# Settings: pH 7.2, 100 µM DPIP, 5 mM NH4Cl, 5 mM MgCl2, 15 µg/mL Chl, white light 500 µmol photons m^-2 s^-1, 10 min dark preincubation at room temperature, competitive with plastoquinone, read-out: DPIP Photoreduction / I50
row,SMILES,IC50 [nM]
1,CC(C)N1C(=O)c2ccccc2NS1(=O)=O [Bentazon],6160
2,CN(C)C(=O)Nc1ccc(Cl)c(Cl)c1 [Diuron],71.8
3,CSc1nnc(C(C)(C)C)c(=O)n1N [Metribuzin],156
4,CCNc1nc(Cl)nc(NC(C)(C)C)n1 [Terbuthylazine],110

# From paper PMC8398153, “Binding Properties of Photosynthetic Herbicides with the QB Site of the D1 Protein in Plant Photosystem II: A Combined Functional and Molecular Docking Study” (Plants, 2021)
